# Values of other authors in patent US8716182B2, “Liquid aqueous crop protection formulations” (BASF SE, priority 2008, dated 2014).
# Conditions: miscible means fully miscible with water
row,Structure (SMILES),solubility in water at 20° C.
1,"OCCOc1ccccc1 [Agrisol PX401, 2-phenoxyethanol]",(24 g/l)
2,"C[S+](C)[O-] [DMSO, dimethyl sulfoxide]",(miscible)
3,OCC1CCCO1 (stereo not shown) [tetrahydrofurfuryl alcohol],(miscible)
4,"CCCOC(=O)C(C)O (stereo not shown) [Purasolv ® NPL, n-propyl lactate]",(miscible)
5,"COCC(C)OC(C)=O (stereo not shown) [Arcosolv ® PMA, 1-methoxy-2-propanol acetate]",acetate)(400 g/l)
6,"O=C1CCCO1 [γ-butryrolacton, γ-butyrolactone]",(miscible)
7,CC(=O)OCC(COC(C)=O)OC(C)=O [triacetin],(64 g/l)
